The record followed here is ChEMBL document CHEMBL5329212, “In situ click chemistry-based discovery of 1,2,3-triazole-derived diarylpyrimidines as novel HIV-1 NNRTIs by exploiting the tolerant region I in binding pocket” (Bioorg Med Chem, 2023).

The target of data set [1] is Human immunodeficiency virus type 1 reverse transcriptase (Human immunodeficiency virus 1) (UniProt Q72547). Description: Inhibition of HIV-1 reverse transcriptase at 0.267 uM incubated for 1 hrs in presence of biotin-labeled dNTPs by ELISA assay relative to control. (An ELISA detects its analyte on a solid surface through an enzyme-linked reagent.)
Data set [2] deals with Human immunodeficiency virus type 1 reverse transcriptase (Human immunodeficiency virus 1, UniProt Q72547). Description: Inhibition of HIV-1 reverse transcriptase incubated for 1 hrs in presence of biotin-labeled dNTPs by ELISA assay.
Data set [3] has as its system Human immunodeficiency virus 1. Description: Antiviral activity against wild type HIV-1 IIIB infected in human MT4 cells assessed as protection against virus-induced cytopathic effect measured after 5 days by MTT assay. The class given is functional, organism-based. The conditions noted are these: Human immunodeficiency virus 1, IIIB, MT4, 120 h.
Data set [4] relates to Human immunodeficiency virus 1. In words: Antiviral activity against HIV-1 harboring RT L100I mutant infected in human MT4 cells assessed as protection against virus-induced cytopathic effect measured after 5 days by MTT assay. The class given is functional, organism-based. The conditions noted are these: Human immunodeficiency virus 1, MT4, 120 h. In general terms: Protection from cytopathic effect is a common read-out in antiviral testing.

For data set [5], the system named is Human immunodeficiency virus 1. In words: Antiviral activity against HIV-1 harboring RT K103N mutant infected in human MT4 cells assessed as protection against virus-induced cytopathic effect measured after 5 days by MTT assay. The class given is functional, organism-based. The conditions noted are these: Human immunodeficiency virus 1, MT4, 120 h.
Data set [6] deals with Human immunodeficiency virus 1. Description: Antiviral activity against HIV-1 harboring RT Y181C mutant infected in human MT4 cells assessed as protection against virus-induced cytopathic effect measured after 5 days by MTT assay. The class given is functional, organism-based. The conditions noted are these: Human immunodeficiency virus 1, MT4, 120 h.
Data set [7] deals with Human immunodeficiency virus 1. In words: Antiviral activity against HIV-1 harboring RT Y188L mutant infected in human MT4 cells assessed as protection against virus-induced cytopathic effect measured after 5 days by MTT assay. The class given is functional, organism-based. The conditions noted are these: Human immunodeficiency virus 1, MT4, 120 h.
Data set [8] concerns Human immunodeficiency virus 1. In words: Antiviral activity against HIV-1 harboring RT E138K mutant infected in human MT4 cells assessed as protection against virus-induced cytopathic effect measured after 5 days by MTT assay. The conditions noted are these: Human immunodeficiency virus 1, MT4, 120 h. The class given is functional, organism-based.
The test system of data set [9] is Human immunodeficiency virus 1. In words: Antiviral activity against HIV-1 harboring RT F227L/V106A double mutant infected in human MT4 cells assessed as protection against virus-induced cytopathic effect measured after 5 days by MTT assay. The class given is functional, organism-based. The conditions noted are these: Human immunodeficiency virus 1, MT4, 120 h.

In data set [10] the test system is Human immunodeficiency virus 1. In words: Antiviral activity against HIV-1 harboring RT RES056 mutant infected in human MT4 cells assessed as protection against virus-induced cytopathic effect measured after 5 days by MTT assay. The conditions noted are these: Human immunodeficiency virus 1, MT4, 120 h. The class given is functional, organism-based.
Data set [11] is described as follows: Cytotoxicity against human MT4 cells assessed as reduction in cell viability measured after 5 days by MTT assay. The class given is toxicity, cell-based. The conditions noted are these: time 5 day. On the technique in general: Tetrazolium dyes change colour on reduction, which living cells bring about.

One may read the inhibition as how much of the control response was suppressed. Broadly, the IC50 is the midpoint of a concentration-inhibition curve. What is called EC50 is the concentration at which the effect is half-maximal. The term CC50 denotes the concentration at which the toxic effect on the cells reaches its halfway point. For `Cc1cc(C#N)cc(C)c1Oc1nc(Nc2ccc(-c3cn(CC(=O)Nc4ccc(C(F)(F)F)cc4)nn3)cc2)nc2ccsc12`, the inhibition in data set [1] is 43.8%. In addition, the IC50 in data set [2] is 2730 nM. In addition, the EC50 in data set [3] turned out to be 2060 nM; in data set [4], 2500 nM; in data set [5], 2830 nM; in [6] it was 5500 nM; in data set [7], 17500 nM; in data set [8], 6680 nM. Moreover, the values for the EC50 in data set [9] and in data set [10] were 18700 nM and 23400 nM, respectively. The CC50 at 120 h in [11] is > 195000 nM.
On to `CCOC(=O)c1ccc(Cn2cc(-c3ccc(Nc4nc(Oc5c(C)cc(C#N)cc5C)c5sccc5n4)cc3)nn2)cc1`, for which the inhibition in data set [1] turned out to be 60%. For the same compound, the IC50 in data set [2] turned out to be 430 nM. Further, the EC50 was 540 nM in data set [3]; 34800 nM in [4]; 860 nM in data set [5]; 120000 nM in [6]; > 208000 nM in [7]; 780 nM in data set [8]. Also, the EC50 in data set [9] and in [10] was > 208000 nM in each case. Also, the CC50 at 120 h in data set [11] was > 208000 nM.
Take `Cc1cc(C#N)cc(C)c1Oc1nc(Nc2ccc(-c3cn(Cc4ccc(B(O)O)cc4)nn3)cc2)nc2ccsc12`: in [1], the inhibition came to 50.8%. Besides, in data set [2], the IC50 was 420 nM. The EC50 was determined as 160 nM in data set [3]; 2450 nM in data set [4]; 410 nM in data set [5]; 4870 nM in [6]; 3170 nM in [7]; 650 nM in data set [8]. Moreover, the EC50 is 4090 nM in data set [9] and ≥ 5550 nM in data set [10]. Besides, the CC50 at 120 h in data set [11] was determined as 13400 nM.
For the compound `Cc1cc(C#N)cc(C)c1Oc1nc(Nc2ccc(-c3cn(Cc4ccc(C(F)(F)F)cc4F)nn3)cc2)nc2ccsc12`, the inhibition in data set [1] is 63.6%. Further, the IC50 in [2] worked out at 1090 nM. The EC50 in data set [3] was determined as 810 nM; in [4], 2360 nM; in data set [5], 1310 nM; in data set [6], 3690 nM; in data set [7], 18600 nM; in [8] it was 2450 nM. For the same compound, the half-maximal effective concentration (EC50) in data set [9] was 21800 nM; in data set [10] it was 34400 nM. Further, the CC50 at 120 h in data set [11] is 129000 nM.
As to `Cc1cc(C#N)cc(C)c1Oc1nc(Nc2ccc(-c3cn(Cc4ccc(C(N)=O)cc4)nn3)cc2)nc2ccsc12`, the inhibition in data set [1] amounted to 39.5%. Further, in data set [2], the IC50 is 250 nM. The EC50 was 30 nM in [3]; 1470 nM in data set [4]; 80 nM in [5]; 6960 nM in [6]; 12000 nM in data set [7]; 150 nM in [8]. Further, the EC50 in [9] is 7070 nM; in [10] it was > 218000 nM. For the same compound, the CC50 at 120 h in data set [11] is > 218000 nM.
Take `Cc1cc(C#N)cc(C)c1Oc1nc(Nc2ccc(-c3cn(Cc4ccc(Cl)cc4)nn3)cc2)nc2ccsc12`: the inhibition in data set [1] stood at 44.7%. For the same compound, the half-maximal inhibitory concentration (IC50) in data set [2] was determined as 320 nM. Besides, the EC50 in [3] was 550 nM; in data set [4] it was 73200 nM; in data set [5], 1110 nM; in data set [6] it was 202000 nM; in data set [7], > 222000 nM; in [8], 1080 nM. Moreover, the EC50 was 106000 nM in data set [9] and > 222000 nM in data set [10]. In addition, in [11], the CC50 at 120 h is > 222000 nM.
Take `Cc1cc(C#N)cc(C)c1Oc1nc(Nc2ccc(-c3cn(Cc4ccc(S(N)(=O)=O)cc4)nn3)cc2)nc2ccsc12`: the inhibition in data set [1] was determined as 46.3%. Besides, the IC50 in data set [2] was found to be 190 nM. The EC50 was determined as 30 nM in data set [3]; 990 nM in data set [4]; 40 nM in data set [5]; 2630 nM in data set [6]; 3210 nM in data set [7]; 50 nM in data set [8]. In addition, the concentration giving a half-maximal response (EC50) in data set [9] was 3610 nM; in data set [10] it was > 205000 nM. Besides, the CC50 at 120 h in data set [11] was > 205000 nM.
